{"source": "paper PMC11726555", "about": "“Photoswitchable Diazocine Derivative for Adenosine A3 Receptor Activation in Psoriasis” (Journal of the American Chemical Society, 2024)", "assay_type_in_all_cases": "cell-based", "key": {"[1]": {"target": "T1, A1R (adenosine A1 receptor) (Homo sapiens, UniProt P30542)", "T1 construct": "gene ADORA1", "T1 sequence (P30542 1-326)": "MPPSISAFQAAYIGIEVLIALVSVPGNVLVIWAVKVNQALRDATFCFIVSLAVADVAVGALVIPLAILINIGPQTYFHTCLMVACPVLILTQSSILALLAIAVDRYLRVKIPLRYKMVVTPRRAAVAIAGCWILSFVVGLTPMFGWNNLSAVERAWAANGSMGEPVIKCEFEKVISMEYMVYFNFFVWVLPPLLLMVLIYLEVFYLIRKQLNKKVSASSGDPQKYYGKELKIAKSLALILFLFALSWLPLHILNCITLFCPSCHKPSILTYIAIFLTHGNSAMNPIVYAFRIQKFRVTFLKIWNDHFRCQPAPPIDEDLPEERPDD", "assay": "cAMP accumulation assay in HEK-293 cells expressing A1R (reference agonist)"}, "[2]": {"target": "T2, adenosine A3 receptor (A3R) (Homo sapiens, UniProt P0DMS8)", "T2 construct": "gene ADORA3", "T2 sequence (P0DMS8 1-318)": "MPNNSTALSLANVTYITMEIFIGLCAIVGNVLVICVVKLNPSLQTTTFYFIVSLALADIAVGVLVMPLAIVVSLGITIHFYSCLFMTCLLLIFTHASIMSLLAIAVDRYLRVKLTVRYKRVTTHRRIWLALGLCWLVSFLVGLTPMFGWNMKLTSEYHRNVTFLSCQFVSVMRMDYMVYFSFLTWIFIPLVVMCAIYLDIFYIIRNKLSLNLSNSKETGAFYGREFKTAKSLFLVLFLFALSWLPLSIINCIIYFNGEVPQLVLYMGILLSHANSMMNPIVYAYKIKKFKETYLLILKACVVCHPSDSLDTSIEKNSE", "assay": "cAMP accumulation assay in HEK-293 cells expressing A3R (reference agonist)"}, "[3]": {"target": "T2, adenosine A3 receptor (A3R)", "assay": "inhibition of forskolin-stimulated cAMP accumulation in HEK-293 cells expressing A3R (partial agonist, Emax […])", "details": "read-out: IC50 (the source's name)"}}}
{"smiles": "OC[C@H]1O[C@@H](n2cnc3c(NC4CCCC4)ncnc32)[C@H](O)[C@@H]1O", "note": "[CPA]", "values": [{"measurement": "cAMP accumulation assay in HEK-293 cells expressing A1R (reference agonist)", "setting": "[1]", "value": "CPA (N^6-cyclopentyladenosine, selective A1R agonist) induced the maximum A3R- and A1R-mediated inhibition of cAMP accumulation"}]}
{"smiles": "CNC(=O)[C@@]12C[C@@H]1[C@@H](n1cnc3c(NCc4cccc(Cl)c4)nc(C#Cc4ccc(F)c(F)c4)nc31)[C@H](O)[C@@H]2O", "note": "[MRS5698, (1S,2R,3S,4R,5S)-4-(6-((3-chlorobenzyl)amino)-2-((3,4-difluorophenyl)-ethynyl)-9H-purin-9-yl)-2,3-dihydroxy-N-methylbicyclo[3.1.0]hexane-1-carboxamide]", "values": [{"measurement": "cAMP accumulation assay in HEK-293 cells expressing A3R (reference agonist)", "setting": "[2]", "value": "treatment with MRS5698 and CPA (N^6-cyclopentyladenosine, selective A1R agonist) induced the maximum A3R- and A1R-mediated inhibition of cAMP accumulation"}]}
{"smiles": "CNC(=O)[C@H]1O[C@@H](n2cnc3c(NCc4ccc5c(c4)/N=N/c4ccccc4CC5)ncnc32)[C@H](O)[C@@H]1O", "note": "[compound 4, E-MRS7787]", "values": [{"measurement": "EC50", "setting": "[3]", "value": 31, "unit": "nM"}]}
